Test results: patent US20020122768A1, “Stable radiopharmaceutical compositions and methods for preparation thereof” (priority 2000, published 2002)

Experiment: Solution stability of ^90Y-A at −78° C., RCP by radio-HPLC
Assay type: physicochemical
Conditions: for RCP (%) change: t = 0 h to 72 h
Protocol: The integrity of a radiopharmaceutical is measured by the radiochemical purity (RCP) of the radiolabeled compound using ITLC or more preferably HPLC. The advantage of using HPLC is that radio-impurities caused by radiolytic degradation can be separated from the radiopharmaceutical under optimized chromatographic conditions. […] The radiopharmaceutical compositions of this invention are effective in maintaining the long-term stability of samples that have been frozen, thawed, and re-tested periodically for 7 days.
The initial RCP of a radiopharmaceutical is largely dependent on radiolabeling conditions such as pH, heating temperature and time. Once a radiopharmaceutical is prepared in high yield, the stability of the radiopharmaceutical composition is measured by the` RCP change of the radiopharmaceutical over a certain period of time. For comparison purposes, sodium gentisate or sodium ascorbate was often used as the reference since they have been used in various radiopharmaceutical formulations.
Analytical Methods. HPLC method 1 used a HP-1100 HPLC system with a UV/visible detector (λ=220 nm), an IN-US radio-detector, and a Zorbax C18 column (4.6 mm×250 mm, 80 Å pore size). The flow rate was 1 mL/min with the mobile phase being isocratic from 0 to 18 min using 87% solvent A (0.025 M ammonium acetate buffer, pH 6.8) and 13% solvent B (acetonitrile), followed by an isocratic wash using 40% of solvent A and 60% solvent B from 19 to 25 min.
The ITLC method used Gelman Sciences silica-gel ITLC paper strips and 1:1 mixture of acetone and saline as eluant. By this method, the radiolabeled compounds migrate to the solvent front while [^90Y]/^177Lu]colloid and [^90Y]/^177Lu]acetate remain at the origin.
^90Y-A was prepared using the procedure described in example 4. The resulting solution was the kept in a dry-ice box (−78° C.) for 3 days. Samples were analyzed at t=0, 24, 48, and 72 h.
To a lead-shielded clean 5 mL vial containing 100 μg of COMPOUND A and 2 mg of 3,4,5-trihydroxybenzoic acid (3,4,5-THBA) dissolved in 0.5 mL of 0.5 M ammonium acetate buffer (pH=8.0) was added 20 μL Of ^90YCl3 solution (˜20 mCi) in 0.05 N HCl. The reaction mixture was heated at 100° C. for 5 min. After cooling to room temperature, 0.5 mL of 3,4,5-THBA solution (20 mg/mL) in 0.5 M ammonium acetate buffer (pH=8.0) was added to the solution above. A sample of the resulting mixture was then diluted 20-fold with GA solution (10 mg/mL, pH=7.4), and analyzed by HPLC (Method 1, injection volume=1 μL) and ITLC. […] The resulting mixture was kept at −78° C. for 3 days. Samples were analyzed at t=0, 1, 2, and 3 days.
Synthesis of ^90Y-A was carried out according to the procedure described in example 12. After cooling to room temperature, 0.5 mL of 2,3,4-THBA solution (20 mg/mL) in 0.5 M ammonium acetate buffer (pH=8.0) was added to the solution containing ^90Y-A. The resulting mixture was kept at -78 °C for 3 days. Samples were analyzed at t=0, 1, 2, and 3 days.
Synthesis of ^90Y-A was carried out according to the procedure described in example 12. After cooling to room temperature, 0.5 mL of DSA solution (20 mg/mL) in 0.5 M ammonium acetate buffer (pH=8.0) was added to the solution containing ^90Y-A. The resulting mixture was kept at −78° C. for 3 days. Samples were analyzed at t=0, 1, 2, and 3 days.
Synthesis of ^90Y-A was carried out according to the procedure described in example 12. After cooling to room temperature, 0.5 mL of HABA solution (20 mg/mL) in 0.5 M ammonium acetate buffer (pH=8.0) was added to the solution containing ^90Y-A. The resulting mixture was kept at −78° C. for 3 days. Samples were analyzed at t=0, 1, 2, and 3 days. […]
To a lead-shielded clean 30 mL vial containing 1000 μg of COMPOUND A and 100 mg of sodium gentisate (GA) dissolved in 5 mL of 0.5 M ammonium acetate buffer (pH=7.5) was added ˜250 μL of ^90YCl3 solution (˜200 mCi) in 0.05 N HCl. The reaction mixture was heated at 100° C. for 15 min. […]

[1] = ^90Y-A prepared using 2 mg 3,4,5-THBA, second stabilizer (0.5 mL of 20 mg/mL) added after radiolabeling, −78° C.
[2] = ^90Y-A prepared using 2 mg 3,4,5-THBA, second stabilizer added after radiolabeling, −78° C.
[3] = ^90Y-A, 10 mg stabilizer, dry-ice box (−78° C.)
[4] = ^90Y-A, 10 mg stabilizer, −78° C.

2,4-disulfonatobenzeneamine [DSA]
RCP (%) t = 0 h [1]: 98.5% | RCP (%) t = 24 h [1]: 98.9% | RCP (%) t = 48 h [1]: 96.7% | RCP (%) t = 72 h [1]: 96.7% | RCP (%) change [2]: 1.8% | RCP (%) t = 0 h [3]: 94.4% | RCP (%) t = 24 h [3]: 94.0% | RCP (%) t = 48 h [3]: 94.1% | RCP (%) t = 72 h [3]: 94.2% | RCP (%) change [4]: 0.2%

O=C(O)c1ccc(O)c(O)c1O [2,3,4-THBA, 2,3,4-trihydroxybenzoic acid]
RCP (%) t = 0 h [1]: 98.1% | RCP (%) t = 24 h [1]: 99.2% | RCP (%) t = 48 h [1]: 99.0% | RCP (%) t = 72 h [1]: 98.2% | RCP (%) change [2]: 0%

O=C(O)c1cc(O)c(O)c(O)c1 [3,4,5-THBA, 3,4,5-trihydroxybenzoic acid]
RCP (%) t = 0 h [1]: 97.5% | RCP (%) t = 24 h [1]: 98.4% | RCP (%) t = 48 h [1]: 98.3% | RCP (%) t = 72 h [1]: 96.6% | RCP (%) change [2]: 0.9% | RCP (%) t = 0 h [3]: 93.3% | RCP (%) t = 24 h [3]: 92.4% | RCP (%) t = 48 h [3]: 93.5% | RCP (%) t = 72 h [3]: 93.5% | RCP (%) change [4]: 0.2%
